Experimental data reported in ChEMBL document CHEMBL1136769 (J Med Chem, 2003).

What was measured:
[1] = Inhibition of [3H]citalopram Binding to the Serotonin Transporter in Rhesus (Macaca mulatta) or Cynomolgus Monkey (Macaca fascicularis) Caudate-Putamen
[2] = target: Sodium-dependent dopamine transporter (Macaca mulatta); assay: Inhibition of [3H]WIN-35428 Binding to the Dopamine Transporter in Rhesus (Macaca mulatta) orCynomolgus Monkey (Macaca fascicularis) Caudate-Putamen

Structure (SMILES) | IC50 [1] | IC50 [2]
COC(=O)[C@@H](c1ccc2ccccc2c1)[C@@H]1CCCCO1 | 1 µM | 0.43 µM
COC(=O)[C@H](c1ccccc1)[C@@H]1CCCCO1 (single isomer, unassigned) | > 100 µM | 13 µM
COC(=O)C(c1ccc(Cl)c(Cl)c1)C1CCCCC1 (configuration not stated) | 12 µM | 
COC(=O)[C@H](c1ccc(Cl)c(Cl)c1)[C@@H]1CCCCO1 (single isomer, unassigned; 5c) | 7.79 µM | 
COC(=O)[C@@H](c1ccc(Cl)c(Cl)c1)[C@H]1CCCCO1 (single isomer, unassigned) | 7.8 µM | 
COC(=O)[C@@H](c1ccccc1)[C@@H]1CCCCO1 | > 100 µM | 3 µM
COC(=O)[C@@H](c1ccc(Cl)c(Cl)c1)[C@@H]1CCCCO1 (stereo in doubt; 12) | 1.66 µM | 
COC(=O)C(c1ccc(Cl)c(Cl)c1)C1CCCC1 (configuration not stated) | 7 µM | 0.047 µM
COC(=O)[C@H](c1ccc(Cl)c(Cl)c1)[C@@H]1CCCCO1 (single isomer, unassigned; 15) | > 10 µM | 
COC(=O)[C@H](c1ccc2ccccc2c1)[C@@H]1CCCCO1 (single isomer, unassigned) | 10 µM | 4 µM
COC(=O)C(c1ccccc1)C1CCCCN1 (racemic) [METHYLPHENIDATE] | > 100 µM | 
N#CC(c1ccc(Cl)c(Cl)c1)C1CCCCC1 (configuration not stated) | 8 µM | 0.127 µM
N#CC(c1ccc(Cl)c(Cl)c1)C1CCCC1 (configuration not stated) | 10 µM | 0.128 µM
COC(=O)[C@H](c1ccc(Cl)c(Cl)c1)[C@H]1CCCCO1 | > 10 µM | 
COC(=O)[C@@H](c1ccc(Cl)c(Cl)c1)[C@@H]1CCCCO1 (stereo in doubt; 4c) | 2.18 µM | 
